The values that follow come from BindingDB's records for PubMed 11602678 (Otsuka Maryland Research Institute, 2001).

Structures are written as SMILES.

In assay [1] the target is T1, Alpha-2A adrenergic receptor [16-465] (Rattus norvegicus, UniProt P22909).
T1 construct: 16-465
T1 sequence (P22909 whole entry): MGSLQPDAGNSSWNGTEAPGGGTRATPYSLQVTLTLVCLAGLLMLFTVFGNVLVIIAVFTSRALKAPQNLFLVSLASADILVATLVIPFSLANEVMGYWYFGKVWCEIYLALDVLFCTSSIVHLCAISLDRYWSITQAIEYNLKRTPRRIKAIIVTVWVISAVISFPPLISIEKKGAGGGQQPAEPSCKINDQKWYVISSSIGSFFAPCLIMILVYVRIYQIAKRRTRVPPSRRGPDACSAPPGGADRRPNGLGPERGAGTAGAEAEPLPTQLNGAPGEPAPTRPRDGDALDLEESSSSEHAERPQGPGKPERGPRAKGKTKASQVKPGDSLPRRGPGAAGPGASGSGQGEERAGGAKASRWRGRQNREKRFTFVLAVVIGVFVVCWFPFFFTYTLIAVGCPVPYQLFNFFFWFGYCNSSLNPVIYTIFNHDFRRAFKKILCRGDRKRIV

Assay [2] concerns the target T2, Alpha-2C adrenergic receptor (Rattus norvegicus, UniProt P22086).
T2 sequence (P22086 whole entry): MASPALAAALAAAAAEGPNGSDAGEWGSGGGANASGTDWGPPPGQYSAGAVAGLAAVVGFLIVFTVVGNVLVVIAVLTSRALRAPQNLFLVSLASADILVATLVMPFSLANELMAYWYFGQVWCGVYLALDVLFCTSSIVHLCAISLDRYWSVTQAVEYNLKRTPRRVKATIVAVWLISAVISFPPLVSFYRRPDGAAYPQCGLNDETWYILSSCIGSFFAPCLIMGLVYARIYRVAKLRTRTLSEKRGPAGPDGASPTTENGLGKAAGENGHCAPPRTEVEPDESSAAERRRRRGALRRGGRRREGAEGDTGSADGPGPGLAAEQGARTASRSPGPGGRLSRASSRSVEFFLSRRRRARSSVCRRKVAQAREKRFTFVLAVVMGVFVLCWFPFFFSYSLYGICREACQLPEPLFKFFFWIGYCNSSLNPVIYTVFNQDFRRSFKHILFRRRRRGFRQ

What is called Ki is the equilibrium dissociation constant of an inhibitor or competing ligand from its target. For `CCC(=O)Nc1c(C)cc(C(=O)N2CCC(N(C)CCc3ccccc3)CC2)cc1C` [NSC_219019], the figures for the Ki in assay [1] and in assay [2] were 3840 nM and 13.7 nM, respectively.
